Results on 13 molecules are retold here after ChEMBL document CHEMBL1136316, “Low molecular mass peptide dendrimers that express antimicrobial properties” (2003).

For one test, the system named is Escherichia coli. The test is described as follows: Antimicrobial activity against Escherichia coli NCTC 8196. It counts as functional.
In the next test the test system is Staphylococcus aureus. The test is described as follows: Antimicrobial activity against Staphylococcus aureus NCTC 4163. The class given is functional.

The structures appear in SMILES notation. In brackets after ≈: the same amount, converted by molar mass.

As to `NCCCC[C@@H](NC(=O)OCc1ccccc1)C(=O)NCCCC[C@@H](NC(=O)[C@@H](CCCCN)NC(=O)OCc1ccccc1)C(=O)NCC(N)=O`, the results for the MIC in the test on Escherichia coli and in the test with Staphylococcus aureus were 375 µM (≈ 273 µg/mL) and 94 µM (≈ 68.3 µg/mL), respectively.

For the molecule `NCCCC[C@H](NC(=O)OCc1ccccc1)C(=O)N[C@@H](Cc1ccccc1)C(N)=O`, the results for the MIC in the test with Escherichia coli and with Staphylococcus aureus were 324 µM (≈ 138 µg/mL) and 151 µM (≈ 64.4 µg/mL), respectively.

On to `NCCCC[C@@H](NC(=O)OCc1ccccc1)C(=O)NCCCC[C@@H](NC(=O)[C@@H](CCCCN)NC(=O)OCc1ccccc1)C(=O)N[C@H](Cc1ccc(O)cc1)C(N)=O`, for which the MIC (commonly the lowest concentration that inhibits growth of the organism) against Escherichia coli is 165 µM (≈ 137 µg/mL); in the test with Staphylococcus aureus it was 1330 µM (≈ 1110 µg/mL).

With `NC(=O)[C@@H](Cc1ccc(O)cc1)NC(=O)[C@@H](CCCCNC(=O)[C@H](N)CCCCNC(=O)OCc1ccccc1)NC(=O)[C@H](N)CCCCNC(=O)OCc1ccccc1`, the MIC in the test on Escherichia coli and in the test with Staphylococcus aureus was 331 µM (≈ 276 µg/mL) each time.

As for `NCCCC[C@@H](NC(=O)OCc1ccccc1)C(=O)NCCC[C@@H](NC(=O)[C@@H](CCCCN)NC(=O)OCc1ccccc1)C(=O)N[C@H](Cc1ccccc1)C(N)=O`, the MIC in the test on Escherichia coli and against Staphylococcus aureus was 85 µM (≈ 68.3 µg/mL) throughout.

Take `NC(=O)[C@@H](Cc1ccccc1)NC(=O)[C@@H](CCCCNC(=O)[C@H](N)CCCCNC(=O)OCc1ccccc1Cl)NC(=O)[C@H](N)CCCCNC(=O)OCc1ccccc1Cl`: the minimal inhibitory concentration (MIC) in the test on Escherichia coli is 84 µM (≈ 74.4 µg/mL); with Staphylococcus aureus it was 16 µM (≈ 14.2 µg/mL).

In the case of `COC(=O)[C@H](Cc1ccccc1)NC(=O)[C@@H](N)CCCCN`, the MIC against Escherichia coli worked out at 590 µM (≈ 181 µg/mL); against Staphylococcus aureus it was 300 µM (≈ 92.2 µg/mL).

With `NC(=O)[C@@H](Cc1ccccc1)NC(=O)[C@@H](CCCCNC(=O)[C@@H](CCCCNC(=O)[C@@H](N)CCCN=C(N)N)NC(=O)[C@@H](N)CCCN=C(N)N)NC(=O)[C@@H](CCCCNC(=O)C(N)CCCN=C(N)N)NC(=O)[C@H](N)CCCN=C(N)N` (stereo partly specified), the MIC was determined as 75 µM (≈ 88 µg/mL) with Escherichia coli and 130 µM (≈ 153 µg/mL) in the test on Staphylococcus aureus.

With `N=C(N)NCCC[C@@H](NC(=O)OCc1ccccc1)C(=O)NCCCC[C@H](NC(=O)[C@@H](CCCN=C(N)N)NC(=O)OCc1ccccc1)C(=O)N[C@H](CCCCNC(=O)C(CCCCNC(=O)[C@H](CCCN=C(N)N)NC(=O)OCc1ccccc1)NC(=O)[C@H](CCCN=C(N)N)NC(=O)OCc1ccccc1)C(=O)N[C@H](Cc1ccccc1)C(N)=O` (stereo partly specified), the MIC in the test on Escherichia coli turned out to be 20 µM (≈ 34.2 µg/mL); against Staphylococcus aureus, 44 µM (≈ 75.2 µg/mL).

With `NCCCC[C@@H](NC(=O)OCc1ccccc1)C(=O)NCCCC[C@@H](NC(=O)[C@@H](CCCCN)NC(=O)OCc1ccccc1)C(=O)N[C@H](Cc1ccccc1)C(N)=O`, the MIC in the test with Escherichia coli was determined as 64 µM (≈ 52.3 µg/mL); against Staphylococcus aureus it was 39 µM (≈ 31.9 µg/mL).

For `C[C@H](N)C(=O)NCCCC[C@H](NC(=O)[C@H](C)N)C(=O)NCCCC[C@H](NC(=O)[C@H](CCCCNC(=O)[C@H](C)N)NC(=O)[C@H](C)N)C(=O)N[C@@H](Cc1ccccc1)C(N)=O` (stereo in doubt), the MIC in the test on Escherichia coli and against Staphylococcus aureus was 181 µM (≈ 151 µg/mL) in each case.

For the molecule `N=C(N)NCCCC(NC(=O)OCc1ccccc1)C(=O)NCCCC[C@@H](NC(=O)C(CCCN=C(N)N)NC(=O)OCc1ccccc1)C(=O)N[C@H](CCCCNC(=O)[C@@H](CCCCNC(=O)C(CCCN=C(N)N)NC(=O)OCc1ccccc1)NC(=O)C(CCCN=C(N)N)NC(=O)OCc1ccccc1)C(=O)N[C@H](Cc1ccccc1)C(N)=O` (stereo in doubt), the results for the MIC in the test with Escherichia coli and in the test on Staphylococcus aureus were 44 µM (≈ 75.2 µg/mL) and 88 µM (≈ 150 µg/mL), respectively.

Turning to `N=C(N)NCCCC(NC(=O)OCc1ccccc1)C(=O)NCCCCC(NC(=O)C(CCCN=C(N)N)NC(=O)OCc1ccccc1)C(=O)NCCCCC(NC(=O)C(CCCCNC(=O)C(CCCN=C(N)N)NC(=O)OCc1ccccc1)NC(=O)C(CCCN=C(N)N)NC(=O)OCc1ccccc1)C(=O)N[C@H](Cc1ccccc1)C(N)=O` (stereo in doubt), the MIC against Escherichia coli worked out at 20 µM (≈ 34.2 µg/mL); with Staphylococcus aureus, 44 µM (≈ 75.2 µg/mL).
